Measured values published in US9956319B2, “Compositions useful as antibiofilm or antimicrobial agents and methods using same” (BAYLOR COLLEGE OF MEDICINE, priority 2012, dated 2018).

Columns and labels:
Klebsielle pneuminiae II = assay: Bacterial colony counts extracted from impregnated central venous catheters after incubation in bacterial suspension; format: cell-based, Klebsiella pneumoniae; settings: catheter impregnated with 50 mg/ml, 10^5 cfu/ml suspension in TSB, 37° C., 24 hours
Method: In this example, segments of 7 French triple lumen polyurethane central venous catheters were impregnated with α-lipoic acid using the method described elsewhere (U.S. Pat. No. 6,589,591) and were subjected to zones of inhibition. Briefly, α-lipoic acid was dissolved in 88% formic acid (at a final solution concentration of 50 mg/ml). 85% ortho-Phosphoric acid and glycerol were then added to the solution at 79:8:13 (v/v/v) (formic acid:ortho-phosphoric acid:glycerol). After mixing the solution, 300 mg/ml of potassium chloride was added to the final solution and mixed.
Catheter segments were then placed in the impregnating solution at 55° C. with agitation for 1 hour in the dark. Catheter segments were then removed from the solution and dried under a fume hood overnight in the dark. Catheter segments were rinsed with deionized water the next day and let dry for another 18 hours in the dark. […]
(§1) Aliquots of each suspension and subsequent dilutions were cultured quantitatively.

Klebsiella pneumoniae = assay: Bacterial colony counts extracted from impregnated central venous catheters after exposure to bacteria; format: cell-based; settings: catheter impregnated with 25 mg/ml, 10^5 cfu/ml suspension in TSB, 37° C., 24 hours
Method: To evaluate the anticolonization/antimicrobial activity of central venous catheters treated with dihydrolipoic acid, segments of 7 French triple lumen polyurethane central venous catheters were impregnated with dihydrolipoic acid using the same patented method described in Example 1 (U.S. Pat. No. 6,589,591) with 25 mg/ml (final solution volume) of the agent. After the impregnation process and drying, Catheter segments were then placed in the impregnating solution at 55° C. with agitation for 1 hour in the dark. Catheter segments were then removed from the solution and dried under a fume hood overnight in the dark. Catheter segments were rinsed with deionized water the next day and let dry for another 18 hours in the dark. After the impregnation process and drying, one-centimeter segments of impregnated catheters were individually placed in 1 ml of 10^5 cfu/ml suspensions of MRSE, MRSA, or K. pneumoniae in trypticase soy broth (TSB) at 37° C. for 24 hours. One-centimeter segments of non-impregnated catheters were also incubated individually in each bacterial suspension at 37° C. for 24 hours as controls. […]
as §1

O=C(O)CCCCC1CCSS1 (centres unmarked) [Lipoic acid, 1,2-dithiolane-3-pentanoic acid]
Bacterial colony counts extracted from central venous catheters (Klebsielle pneuminiae II): 9.0 × 10^3

O=C(O)CCCCC(S)CCS (centres unmarked) [Dihydrolipoic acid, 6,8-dimercaptooctanoic acid]
Mean bacterial colony counts extracted from catheter (Klebsiella pneumoniae): 280000
